From patent publication US20080306044A1, “SPIROBENZOAZEPANES AS VASOPRESSIN ANTAGONISTS” (priority 2007, published 2008)

Legend:
[1] = molecular target: T1, human V1a receptor (Homo sapiens, UniProt P37288); assay: In-vitro binding assay (3H-arginine-8-vasopressin), V1a; details: for IC50: membrane containing human V1a receptor, 3H-arginine-8-vasopressin 0.65-0.75 nM
T1 construct: expressed in transfected cells
Procedure: (§1) Assay buffer is 50 mM Tris-Cl, 5 mM MgCl2, 0.1% BSA (pH 7.5) containing 5 μg/mL of aprotinin, leupeptin, pepstatin, 50 μg/mL bacitracin, and 1 mM Pefabloc (4-(2-aminoethyl)-benzenesulfonyl fluoride, hydrochloride manufactured by Roche Diagnostics Corporation, Indianapolis, Ind. and distributed by Boehringer Mannheim). H3 vasopressin is ^3H-arginine-8-vasopressin (NEN Life Sciences, Boston, Mass.; 68.5 Ci/mmol, final concentration in assay is 0.65-0.75 nM). Into the wells of a 96-well round bottom polypropylene plates are added buffer, test compound, membrane (containing human V1a or V2 receptor), and H3 vasopressin. The reaction plates are allowed to sit at room temperature for one hour. The samples are filtered through Unifilter GF/C plates (PerkinElmer Life Sciences, Boston, Mass.) presoaked in 0.3 polyethyleneimine. The plates are washed 5 times with cold physiological saline containing 0.05% Tween 20. After drying, the bottom of the filter plates are sealed and 0.025 mL of Microscint-20 (Packard Instrument Co, Meriden, Conn.) is added to each filter. The top of the plate is sealed, and the plate is counted. Non-specific binding is determined by the addition of 1.25 μM arginine-8-vasopressin in those wells.
(§2) The % inhibition for the test results was calculated according to the formula: […]
Where an IC50 value was not obtained, the percent inhibition values are shown in parentheses (*) and were obtained at a test concentration of 0.2 μM.

[2] = molecular target: T2, human V2 receptor (Homo sapiens, UniProt P30518); assay: V2 vasopressin receptor functional activity (cAMP accumulation); type: cell-based; parameters: expressed in transfected cells; host or cells: HEK-293; details: V2-HEK cells; block of vasopressin-stimulated cAMP accumulation; read-out: V2 (functional) IC50
Procedure: The V2 receptor is also a G-protein coupled receptor which when activated induces an increase in cAMP turnover. Antagonism against the V2 receptor is determined by measuring cAMP accumulation in transfected HEK-293 cells expressing the human V-2 receptor (V2-HEK cells). Compounds are tested for their ability to block the stimulatory effects of vasopressin on cAMP accumulation. The cell content of cAMP is measured by radioimmunoassay using NEN flashplates.

[3] = molecular target: T1, human V1a receptor; assay: cell-based
Procedure: The V1a receptor is a G-protein coupled receptor, which upon activation triggers an increase in intracellular calcium mobilization. To evaluate compounds for their functional V1a receptor activity, HEK-293 cells were transfected with the human V1a receptor (V1a-HEK cells). HEK-293 cells were grown in DMEM (Dulbecco's modified Eagle Media) supplemented with 10% FBS and glutamine. HEK-cells were passed biweekly by trypsinization and seeded into 96 well plates at 33,000 cells per well. HEK-293 cells were transfected with human V1a receptor DNA using DMRIE-C reagent from Life Technologies (Carlsbad, Calif.). Stable lines were generated by selecting cells grown in culture media containing geneticin. After growing in Packard Clear-View black 96 well plates for 4-6 days, V1a-HEK cells were loaded with the calcium-sensitive fluorescence dye, FLUO-3 AM. Changes in intracellular calcium mobilization were measured by quantitating intracellular fluorescence using FLIPR (Fluorometric Imaging Plate Reader; Molecular Devices, Sunnyvale, Calif.). Test compounds were first added to the cells and the resulting changes in fluorescence measured to detect receptor agonistic activity. Five minutes later the cells were challenged with vasopressin to test compounds for their antagonistic activity. Receptor antagonists inhibit the ability of vasopressin to stimulate increases in intracellular fluorescence.

[4] = molecular target: T2, human V2 receptor; assay: In-vitro binding assay (3H-arginine-8-vasopressin), V2; details: for inhibition at 0.2 µM: test concentration of 0.2 μM, read-out: V2 binding percent inhibition (in parentheses, where an IC50 value was not obtained); for IC50: membrane containing human V2 receptor, 3H-arginine-8-vasopressin 0.65-0.75 nM
Procedure: as §1, with “H3 vasopressin is ^3H-arginine-8-vasopressin (NEN Life Sciences, Boston, Mass.; 68.5 Ci/mmol, final concentration in assay is 0.65-0.75 nM).” left out, “counted.” for “counted. Non-specific binding is determined by the addition of 1.25 μM arginine-8-vasopressin in those wells.”
as §2

[5] = V1 (functional) IC50, V1a-HEK cells, inhibition of vasopressin-stimulated intracellular calcium mobilization

T2 sequence (P30518 whole entry): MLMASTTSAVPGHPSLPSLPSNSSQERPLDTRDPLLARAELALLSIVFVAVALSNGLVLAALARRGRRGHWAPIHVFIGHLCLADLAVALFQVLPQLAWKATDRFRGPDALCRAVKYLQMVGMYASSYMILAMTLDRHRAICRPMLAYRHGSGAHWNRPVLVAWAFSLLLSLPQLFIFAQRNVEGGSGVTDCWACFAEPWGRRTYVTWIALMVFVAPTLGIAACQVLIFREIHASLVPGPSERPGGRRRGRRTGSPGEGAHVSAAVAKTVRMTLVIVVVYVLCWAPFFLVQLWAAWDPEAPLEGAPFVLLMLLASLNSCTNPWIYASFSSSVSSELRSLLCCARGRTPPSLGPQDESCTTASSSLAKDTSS
T1 sequence (P37288 whole entry): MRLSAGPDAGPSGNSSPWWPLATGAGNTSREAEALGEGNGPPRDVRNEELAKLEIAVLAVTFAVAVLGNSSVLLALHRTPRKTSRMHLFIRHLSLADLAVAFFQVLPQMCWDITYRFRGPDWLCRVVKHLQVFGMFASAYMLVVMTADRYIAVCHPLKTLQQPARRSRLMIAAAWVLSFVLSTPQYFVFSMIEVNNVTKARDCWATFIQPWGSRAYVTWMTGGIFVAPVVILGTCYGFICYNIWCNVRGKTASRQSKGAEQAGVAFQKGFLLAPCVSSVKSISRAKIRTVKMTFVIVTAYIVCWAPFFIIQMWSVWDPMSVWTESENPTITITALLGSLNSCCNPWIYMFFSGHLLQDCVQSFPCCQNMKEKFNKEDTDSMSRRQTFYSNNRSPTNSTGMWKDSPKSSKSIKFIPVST

| Structure (SMILES) | IC50 [1] [nM] | IC50 [2] [nM] | IC50 [3] [nM] | inhibition at 0.2 µM [4] [%] | IC50 [4] [nM] | inhibition at 0.2 µM ([1]; test concentration of 0.2 μM, read-out: V1a binding percent inhibition (in parentheses, where an IC50 value was not obtained)) [%] | IC50 [3, 5] [nM] |
| --- | --- | --- | --- | --- | --- | --- | --- |
| CN(C)C1CCCC12CCN(C(=O)c1ccc(NC(=O)c3cc(F)ccc3Cl)cc1)c1ccccc1C2 (centres unmarked) [Cpd 6, N-[4-(2-chloro-5-fluoro-phenylcarbonyl)amino-phenylcarbonyl]-2-dimethylamino-spiro[cyclopentane-1,4′-benzo[b]azepane]] | 10 | 107 | 70 | 63 |  |  |  |
| NCC(=O)NC1CCCC12CCN(C(=O)c1ccc(NC(=O)c3ccccc3-c3ccccc3)cc1)c1ccccc1C2 (centres unmarked) [Cpd 40, 2-(aminomethylcarbonyl)amino-N-[4-(biphen-2-ylcarbonyl)amino-phenylcarbonyl]-spiro[cyclopentane-1,4′-benzo[b]azepane]] | 23 | 200 | 290 |  | 15 |  |  |
| O=C(Nc1ccc(C(=O)N2CC[C@]3(CCCC3=NO)Cc3ccccc32)cc1)c1cc(F)ccc1Cl [Cpd 45, (S)—N-[4-(2-chloro-5-fluoro-phenylcarbonyl)amino-phenylcarbonyl]-2-hydroxyimino-spiro[cyclopentane-1,4′-benzo[b]azepane]] |  | 550 |  | 10 |  | 67 | 570 |
| NC1CCCC12CCN(C(=O)c1ccc(NC(=O)c3ccccc3-c3ccccc3)cc1)c1ccccc1C2 (centres unmarked) [Cpd 39, 2-amino-N-[4-(biphen-2-ylcarbonyl)amino-phenylcarbonyl]-spiro[cyclopentane-1,4′-benzo[b]azepane]] | 80 | 690 | 730 |  | 110 |  |  |
| NN=C1CCCC12CCN(C(=O)c1ccc(NC(=O)c3cc(F)ccc3Cl)cc1)c1ccccc1C2 (centres unmarked) [Cpd 1, 2-aminoimino-N-[4-(2-chloro-5-fluoro-phenylcarbonyl)amino-phenylcarbonyl]-spiro[cyclopentane-1,4′-benzo[b]azepane]] | 3 | 54 |  |  | 23 |  | 10 |
| O=C(Nc1ccc(C(=O)N2CC[C@@]3(CCCC3=NO)Cc3ccccc32)cc1)c1cc(F)ccc1Cl [Cpd 7, (R)—N-[4-(2-chloro-5-fluoro-phenylcarbonyl)amino-phenylcarbonyl]-2-hydroxyimino-spiro[cyclopentane-1,4′-benzo[b]azepane]] | 8 | 24 |  |  | 28 |  | 18 |
| Cn1ccnc1C1=CCCC12CCN(C(=O)c1ccc(NC(=O)c3cc(F)ccc3Cl)cc1)c1ccccc1C2 (centres unmarked) [Cpd 5, N-[4-(2-chloro-5-fluoro-phenylcarbonyl)amino-phenylcarbonyl]-2-(1-methyl-1H-imidazol-2-yl)-spiro[cyclopent-2-ene-1,4′-benzo[b]azepane]] | 9 | 66 | 130 |  | 84 |  |  |
| NN=C1CCCC12CCN(C(=O)c1ccc(NC(=O)c3ccccc3-c3ccccc3)cc1)c1ccccc1C2 (centres unmarked) [Cpd 38, 2-aminoimino-N-[4-(biphen-2-ylcarbonyl)amino-phenylcarbonyl]-spiro[cyclopentane-1,4′-benzo[b]azepane]] | 21 | 40 |  |  | 24 |  | < 30 |
| O=C(Nc1ccc(C(=O)N2CCC3(CCCC3=NO)Cc3ccccc32)cc1)c1cc(F)ccc1Cl (centres unmarked) [Cpd 44, N-[4-(2-chloro-5-fluoro-phenylcarbonyl)amino-phenylcarbonyl]-2-hydroxyimino-spiro[cyclopentane-1,4′-benzo[b]azepane]] | 7 | 66 |  |  | 28 |  | 20 |
| O=C(Nc1ccc(C(=O)N2CCC3(CCCC3=NO)Cc3ccccc32)cc1)c1ccccc1-c1ccccc1 (centres unmarked) [Cpd 37, N-[4-(biphen-2-ylcarbonyl)amino-phenylcarbonyl]-2-hydroxyimino-spiro[cyclopentane-1,4′-benzo[b]azepane]] | 23 | 90 |  |  | 27 |  | 30 |
| NCCON=C1CCCC12CCN(C(=O)c1ccc(NC(=O)c3cccc(F)c3)cc1)c1ccccc1C2 (centres unmarked) [Cpd 41, N-[4-(3-fluoro-phenylcarbonyl)amino-phenylcarbonyl]-2-(2-amino-ethoxy)imino-spiro[cyclopentane-1,4′-benzo[b]azepane]] | 8 | 700 | 20 | 55 |  |  |  |
